Measured values published in patent publication US9173882B2, “Polycyclic heteroaryl substituted triazoles useful as Axl inhibitors” (Rigel Pharmaceuticals, Inc., priority 2008, dated 2015).

Biological target: T1, Axl (Homo sapiens, UniProt P30530)
T1 construct: endogenous in cells; host or cells: HeLa cells
T1 sequence (P30530 26-894): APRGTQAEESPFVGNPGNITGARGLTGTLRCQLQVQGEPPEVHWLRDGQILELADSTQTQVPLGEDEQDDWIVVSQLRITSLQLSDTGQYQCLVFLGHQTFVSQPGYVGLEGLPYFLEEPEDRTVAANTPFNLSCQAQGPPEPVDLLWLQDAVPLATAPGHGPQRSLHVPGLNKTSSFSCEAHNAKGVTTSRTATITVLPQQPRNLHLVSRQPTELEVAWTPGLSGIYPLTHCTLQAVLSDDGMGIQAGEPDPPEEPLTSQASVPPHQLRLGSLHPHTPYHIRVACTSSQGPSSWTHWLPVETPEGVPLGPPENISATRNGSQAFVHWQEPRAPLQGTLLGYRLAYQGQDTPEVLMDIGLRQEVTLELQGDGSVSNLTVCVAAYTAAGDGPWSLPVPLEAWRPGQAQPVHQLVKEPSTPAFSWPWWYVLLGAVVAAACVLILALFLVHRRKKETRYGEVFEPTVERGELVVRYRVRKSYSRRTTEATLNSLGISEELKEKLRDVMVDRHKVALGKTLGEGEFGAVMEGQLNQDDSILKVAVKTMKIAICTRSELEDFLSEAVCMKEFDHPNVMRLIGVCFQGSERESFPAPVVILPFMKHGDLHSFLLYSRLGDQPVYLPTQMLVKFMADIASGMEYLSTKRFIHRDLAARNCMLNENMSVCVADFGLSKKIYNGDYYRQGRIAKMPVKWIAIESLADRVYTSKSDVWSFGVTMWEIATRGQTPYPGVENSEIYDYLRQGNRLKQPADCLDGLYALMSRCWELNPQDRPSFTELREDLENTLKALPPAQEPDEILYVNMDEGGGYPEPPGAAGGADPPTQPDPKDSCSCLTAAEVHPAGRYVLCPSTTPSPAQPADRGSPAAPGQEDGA
Assay: Phospho-Akt in-cell Western assay
Assay type: cell-based
Settings: Hela cells, stimulated by Axl-antibody cross-linking, phospho-Akt chemiluminescence; Table 1, formula (Ia)
Method: Phospho-Akt in-Cell Western Assay
The compounds of the invention were tested in the following assay for their ability to inhibit Axl activity.
• Cell culture plate: 96 well assay plate (Corning 3610), white, clear bottom, tissue-culture treated. • Cells: Hela cells. • Starvation medium: For Axl stimulation: 0.5% FCS (fetal calf serum) in DMEM, plus Axl/Fc (extracellular domain of AXL fused to imunoglobulin Fc region) (R&D, 154-AL) 500 ng/mL. • For EGF (epidermal growth factor) stimulation: 0.5% FCS in DMEM (Dulbecco's modified Eagles medium). • Poly-L-Lysine 0.01% solution (the working solution): 10 μg/ml, dilute In PBS (phosphate buffered saline). • Axl antibody cross-linking: • 1st: Mouse anti-Axl (R&D, MAB154). • 2nd: Biotin-SP-conjugated AffiniPure goat anti-mouse IgG (H+L) (Jackson ImmunoResearch #115-065-003). • Fixing buffer: 4% formaldehyde in PBS. • Wash buffer: 0.1% TritonX-100 in PBS. • Quenching buffer: 3% H2O2, 0.1% Azide in wash buffer, Azide and hydrogen peroxide (H2O2) are added fresh. • Blocking buffer: 5% BSA in TBST (tris buffered saline plus 0.1% Tween 20). • Primary antibody: Rabbit anti-human Phospho-Akt antibody (Cell Signaling 9271): 1×250 diluted in blocking buffer. • Secondary antibody: HRP (horse radish peroxidase)-conjugated Goat anti-Rabbit secondary, stock solution: Jackson ImmunoResearch (Goat anti-Rabbit HRP, #111-035-144) 1:1 diluted in glycerol, store at −20° C. The working solution: 1×2000 dilution of stock in blocking buffer. • Chemiluminescent working solution (Pierce, 37030): SuperSignal ELISA (enzyme linked immunosorbant assay) Pico Chemiluminescent substrate. • Crystal Violet solution: Stock: 2.5% Crystal violet in methanol, filtered and kept at ambient temperature. The working solution: dilute the stock 1:20 with PBS immediately before use. • 10% SDS: working solution: 5% SDS (sodium dodecylsulfate), diluted in PBS Methods: Day 1:
A 96 well TC (tissue culture treated) plate was coated with 10 μg/mL poly-L-Lysine at 37° C. for 30 min, washed twice with PBS, and air-dried for 5 minutes before cells were added. Hela cells were seeded at 10,000 cells/well and the cells were starved in 100 μL starvation medium containing Axl/Fc for 24 hrs.
The cells were pre-treated with test compounds by adding 100 μL of 2× test compound to the starvation medium on the cells. The cells were incubated at 37° C. for 1 hr before stimulation.
The cells were stimulated by Axl-antibody cross-linking as follows: A 5× 1st/2nd Axl antibody mixture was made (37.5 μg/mL 1st/100 μg/mL 2nd) in starvation medium and nutated at 4° C. with thorough mixing for 1-2 hours for clustering. The resulting mix was warmed to 37° C. 50 μL of 5× Axl 1st/2nd of antibody cluster was added to the cells and the cells were incubated at 37° C. for 5 min.
After 5 minutes stimulation, the plate was flicked to remove medium and the plate was tapped onto paper towels. Formaldehyde (4.0% in PBS, 100 μL) was added to fix the cells and the cells were incubated at ambient temperature for 20 min without shaking.
The cells were washed with a plate washer buffer to remove the formaldehyde solution. The plate was flicked to removed excess wash buffer and tapped onto paper towels. Quenching buffer (100 μL) was added to each well and the cells were incubated at ambient temperature for 20 minutes without shaking.
The cells were washed with a plate washer buffer to remove the quenching buffer. Blocking buffer (100 μL) was added and the cells were incubated at ambient temperature for at least an hour with gentle shaking.
The cells were washed with a plate washer buffer and diluted primary antibody (50 μL) was added to each well (blocking buffer was added to the negative control wells instead). The plates were incubated overnight at 4° C. with gentle shaking.
The wash buffer was removed, diluted secondary antibody (100 μL) was added, and the cells were incubated at ambient temperature for 1 hour with gentle shaking. […]

| Compound | IC50 [nM] |
| --- | --- |
| Nc1nc(Nc2ccc3c(c2)CC[C@@H](N(CC2CCCCC2)CC2CCCCC2)CC3)nn1-c1cc2c(nn1)-c1ccccc1CCC2 [Compound 27, 1-(6,7-dihydro-5H-benzo[6,7]cyclohepta[1,2-c]pyridazin-3-yl)-N^3-((7S)-7-(di(cyclohexylmethyl)amino)-6,7,8,9-tetrahydro-5H-benzo[7]annulene-2-yl)-1H-1,2,4-triazole-3,5-diamine] | 10000 to 20000 |
| Nc1nc(Nc2ccc3c(c2)CC[C@@H](NCc2ccccc2C(=O)O)CC3)nn1-c1cc2c(nn1)-c1ccccc1CCC2 [Compound 29, 1-(6,7-dihydro-5H-benzo[6,7]cyclohepta[1,2-c]pyridazin-3-yl)-N^3-((7S)-7-((2-carboxyphenyl)methyl)amino-6,7,8,9-tetrahydro-5H-benzo[7]annulene-2-yl)-1H-1,2,4-triazole-3,5-diamine] | 1000 to 10000 |
| Nc1nc(Nc2ccc3c(c2)CC[C@@H](NCc2cccc(Br)c2)CC3)nn1-c1cc2c(nn1)-c1ccccc1CCC2 [Compound 30, 1-(6,7-dihydro-5H-benzo[6,7]cyclohepta[1,2-c]pyridazin-3-yl)-N^3-((7S)-7-((3-bromophenyl)methyl)amino-6,7,8,9-tetrahydro-5H-benzo[7]annulene-2-yl)-1H-1,2,4-triazole-3,5-diamine] | 1000 to 10000 |
| Nc1nc(Nc2ccc3c(c2)CC[C@@H](N(CC2CCCC2)CC2CCCC2)CC3)nn1-c1cc2c(nn1)-c1ccccc1CCC2 [Compound 35, 1-(6,7-dihydro-5H-benzo[6,7]cyclohepta[1,2-c]pyridazin-3-yl)-N^3-((7S)-7-(di(cyclopentylmethyl)amino)-6,7,8,9-tetrahydro-5H-benzo[7]annulene-2-yl)-1H-1,2,4-triazole-3,5-diamine] | 1000 to 10000 |
| Nc1nc(Nc2ccc3c(c2)CC[C@@H](N(CC2CC4C=CC2C4)CC2CC4C=CC2C4)CC3)nn1-c1cc2c(nn1)-c1ccccc1CCC2 (stereo partly drawn) [Compound 37, 1-(6,7-dihydro-5H-benzo[6,7]cyclohepta[1,2-c]pyridazin-3-yl)-N^3-((7S)-7-(di(bicyclo[2.2.1]hept-2-en-5-ylmethyl)amino)-6,7,8,9-tetrahydro-5H-benzo[7]annulene-2-yl)-1H-1,2,4-triazole-3,5-diamine] | 1000 to 10000 |
| CC(C)CCN(CCC(C)C)[C@H]1CCc2ccc(Nc3nc(N)n(-c4cc5c(nn4)-c4ccccc4CCC5)n3)cc2CC1 [Compound 40, 1-(6,7-dihydro-5H-benzo[6,7]cyclohepta[1,2-c]pyridazin-3-yl)-N^3-((7S)-7-(di(3-methylbutyl)amino)-6,7,8,9-tetrahydro-5H-benzo[7]annulene-2-yl)-1H-1,2,4-triazole-3,5-diamine] | 1000 to 10000 |
| CCC(CC)CN[C@H]1CCc2ccc(Nc3nc(N)n(-c4cc5c(nn4)-c4ccccc4CCC5)n3)cc2CC1 [Compound 41, 1-(6,7-dihydro-5H-benzo[6,7]cyclohepta[1,2-c]pyridazin-3-yl)-N^3-((7S)-7-(2-ethylbutylamino)-6,7,8,9-tetrahydro-5H-benzo[7]annulene-2-yl)-1H-1,2,4-triazole-3,5-diamine] | < 1000 |

Now from value to compound:

| IC50 [nM] | Compound |
| --- | --- |
| < 1000 | CN(C)[C@H]1CCc2ccc(Nc3nc(N)n(-c4cc5c(nn4)-c4ccccc4CCC5)n3)cc2CC1 [Compound 31, 1-(6,7-dihydro-5H-benzo[6,7]cyclohepta[1,2-c]pyridazin-3-yl)-N^3-((7S)-7-(dimethylamino)-6,7,8,9-tetrahydro-5H-benzo[7]annulene-2-yl)-1H-1,2,4-triazole-3,5-diamine] |
| < 1000 | Nc1nc(Nc2ccc3c(c2)CC[C@@H](NC2CCC2)CC3)nn1-c1cc2c(nn1)-c1ccccc1CCC2 [Compound 32, 1-(6,7-dihydro-5H-benzo[6,7]cyclohepta[1,2-c]pyridazin-3-yl)-N^3-((7S)-7-(cyclobutylamino)-6,7,8,9-tetrahydro-5H-benzo[7]annulene-2-yl)-1H-1,2,4-triazole-3,5-diamine] |
| < 1000 | CCC(CC)N[C@H]1CCc2ccc(Nc3nc(N)n(-c4cc5c(nn4)-c4ccccc4CCC5)n3)cc2CC1 [Compound 33, 1-(6,7-dihydro-5H-benzo[6,7]cyclohepta[1,2-c]pyridazin-3-yl)-N^3-((7S)-7-(3-pentylamino)-6,7,8,9-tetrahydro-5H-benzo[7]annulene-2-yl)-1H-1,2,4-triazole-3,5-diamine] |
| < 1000 | CC(C)(C)CN[C@H]1CCc2ccc(Nc3nc(N)n(-c4cc5c(nn4)-c4ccccc4CCC5)n3)cc2CC1 [Compound 34, 1-(6,7-dihydro-5H-benzo[6,7]cyclohepta[1,2-c]pyridazin-3-yl)-N^3-((7S)-7-((2,2-dimethylpropyl)amino)-6,7,8,9-tetrahydro-5H-benzo[7]annulene-2-yl)-1H-1,2,4-triazole-3,5-diamine] |
| < 1000 | Nc1nc(Nc2ccc3c(c2)CC[C@@H](NCC2CCCC2)CC3)nn1-c1cc2c(nn1)-c1ccccc1CCC2 [Compound 36, 1-(6,7-dihydro-5H-benzo[6,7]cyclohepta[1,2-c]pyridazin-3-yl)-N^3-((7S)-7-((cyclopentylmethyl)amino)-6,7,8,9-tetrahydro-5H-benzo[7]annulene-2-yl)-1H-1,2,4-triazole-3,5-diamine] |
| < 1000 | Nc1nc(Nc2ccc3c(c2)CC[C@@H](NCC2CC4C=CC2C4)CC3)nn1-c1cc2c(nn1)-c1ccccc1CCC2 (stereo partly drawn) [Compound 38, 1-(6,7-dihydro-5H-benzo[6,7]cyclohepta[1,2-c]pyridazin-3-yl)-N^3-((7S)-7-((bicyclo[2.2.1]hept-2-en-5-ylmethyl)amino)-6,7,8,9-tetrahydro-5H-benzo[7]annulene-2-yl)-1H-1,2,4-triazole-3,5-diamine] |
| < 1000 | CC(C)CCN[C@H]1CCc2ccc(Nc3nc(N)n(-c4cc5c(nn4)-c4ccccc4CCC5)n3)cc2CC1 [Compound 39, 1-(6,7-dihydro-5H-benzo[6,7]cyclohepta[1,2-c]pyridazin-3-yl)-N^3-((7S)-7-(3-methylbutylamino)-6,7,8,9-tetrahydro-5H-benzo[7]annulene-2-yl)-1H-1,2,4-triazole-3,5-diamine] |
